pIC50: −log10 of the molar value.
What was measured:
[1] = mouse, IP, IV and oral; cited from earlier work
MCF-7 xenografts = MCF-7 xenografts in nude mice, M4N i.p. or oral; assay type: in vivo; conditions: 21 days systemic treatment, IP injection daily or oral feeding in food balls
Experimental: (§1) MCF-7 cells (a human mammary carcinoma cell line, obtainable from the ATCC P.O. Box 1549, Manassas, Va. 20108) were seeded into 24-well plates at 1.5×10^4 cells/well in 500 μl of Dulbecco's modified Eagle's medium (DMEM) containing 10% fetal bovine serum (FBS) and the antibiotics penicillin and streptomycin. Varying concentrations of M4N were added the next day. After incubation for an additional 3 days, cell proliferation was assessed by the MTT assay. […] The mice were assigned to a treatment group that received M4N dissolved in a 6% Cremaphor EL, 6% ethanol and 88% saline, and to a control group that received the vehicle only. […] Mice received a single daily 100 μL intraperitoneal (i.p.) injection containing 2 mg of M4N for 3 weeks. The control mice received an equal volume of the vehicle. […] The results from the individual mice were combined and the average tumor volume was determined. Statistical significance of the mean differences in tumor volume was assessed by Student's t-test.

[2] = clinical trials to date; cited from earlier work
NCI/ADR-RES xenografts = NCI/ADR-RES xenografts in nude mice, M4N i.p. or oral; assay type: in vivo; conditions: 21 days systemic treatment, IP injection daily or oral feeding in food balls
Experimental: as §1

[3] = dogs and rabbits, subcutaneous, intravaginal and IV formulations; cited from earlier work
MCF-7 cells = assay: MTT cell proliferation assay, MCF-7 cells in culture; assay type: cell-based, human; conditions: 72 hours
Experimental: as §1

MCF-7 = conditions: MCF-7; read-out: IC50 from previous studies; cited from earlier work

COc1ccc(C[C@@H](C)[C@@H](C)Cc2ccc(OC)c(OC)c2)cc1OC [M4N, tetra-o-methyl nordihydroguaiaretic acid]
level of drug in the blood [1]: extremely low and only presents transiently | tumor sizes of xenografts (MCF-7 xenografts): greatly reduced the tumor sizes | systemic side effects (gastrointestinal problems, anemia, hair loss) [2]: has not caused the systemic side effects | tumor sizes of xenografts (NCI/ADR-RES xenografts): greatly reduced the tumor sizes | amount of drug in the blood [3]: barely detectable | M4N required to achieve a total cell arrest (MCF-7 cells): 20 µM | pIC50 (MCF-7): ~5.15
